From paper PMC10656490, “Sequence-based prediction of the intrinsic solubility of peptides containing non-natural amino acids” (Nature Communications, 2023) come the findings set out here.

SMILES strings stand for the structures. Where two headings read alike, the source gives them in different places. Where a SMILES comes first, the peptide text is derived from it. [ ]: non-standard residue; d: D form. Cha = N[C@@H](CC1CCCCC1)C(=O)O; Cit = NC(=O)NCCC[C@H](N)C(=O)O; Nle = CCCC[C@H](N)C(=O)O; Aib = CC(C)(N)C(=O)O

The series can be described thus: Solubility by ultracentrifugation (GLP-1 variants). It counts as physicochemical. The conditions noted are these: for Ultracentrifugation: GLP1 variants, Figure 3c; for Ultracentrifugation / First Run / Second Run: in mg/mL; for First Run / Second Run: source data Supplementary Fig. 4, GLP-1 variants, 2 stands where Table 3 prints S; for solubility: 10 mM citrate 10 mM phosphate buffer, pH 7, GLP-1 variants, 2 mg/mL in 10 mM citrate 10 mM phosphate pH 7, 30 min 500,000 g 4 °C. The method, then:
Relative solubility was measured using a recently developed PEG precipitation assay. For all PYY variants the standard assay worked well, and no changes had to be implemented (Fig. 2a). […] Moreover, to ensure that the results stemming from the AMS assay are consistent and reliable, we performed the 18 A experiments twice independently on different days. The results confirmed that they are indeed replicable, and we were therefore confident to use them for the validation of our approach (Supplementary Fig. 3). […] Even at final concentrations of 0.33 mg/mL (instead of 1 mg/mL) most variants remained insoluble. We used ultracentrifugation to determine the relative solubilities of the GLP-1 variants (Table 3). To confirm the reliability of this method we replicated the results on a different day with the same stock solutions (Supplementary Fig. 4).
Aliquots of 1 mg were prepared from the purified and lyophilised stocks. […] Briefly, a precipitant is titrated in increasing concentration to a fixed concentration of protein to induce precipitation of the protein. The samples are incubated for 48 h at 4° after mixing. The samples are centrifuged and the remaining protein concentration is measured in the supernatant using a plate reader. PYY and 18 A variants were dissolved in 10 mM citrate 10 mM phosphate buffer at pH 7 for a final concentration of 3 mg/mL. The assay was run with 50% 6000 PEG for PYY and with 3.8 M AMS for 18 A. To improve throughput, a multichannel robot was employed to measure several peptides at once with the workflow being kept the same as described previously. […] 120 µL of each sample were centrifuged using an OptimaTLX Ultracentrifuge and spinning for 30 min at 500,000 g at 4 °C. The supernatant was removed, and the peptide concentration was measured using a NanoDrop.

[1] abbreviates: run 1, read-out: Run 1 solubility (peptide concentration in supernatant).
Setting [2] is: run 2, read-out: Run 2 solubility (peptide concentration in supernatant).

With `CC[C@H](C)[C@H](NC(=O)[C@H](Cc1ccccc1)NC(=O)[C@H](CCC(=O)O)NC(=O)[C@H](CCCCN)NC(=O)[C@H](C)NC(=O)[C@H](C)NC(=O)[C@H](CCC(N)=O)NC(=O)CNC(=O)[C@H](CCC(=O)O)NC(=O)[C@H](CC(C)C)NC(=O)[C@H](Cc1ccc(O)cc1)NC(=O)[C@H](CO)NC(=O)[C@H](CO)NC(=O)[C@@H](NC(=O)[C@H](CC(=O)O)NC(=O)[C@H](CO)NC(=O)[C@@H](NC(=O)[C@H](Cc1ccccc1)NC(=O)[C@@H](NC(=O)CNC(=O)[C@H](CCC(=O)O)NC(=O)[C@H](C)NC(=O)[C@@H](N)Cc1c[nH]cn1)[C@@H](C)O)[C@@H](C)O)C(C)C)C(=O)N[C@@H](C)C(=O)N[C@@H](Cc1c[nH]c2ccccc12)C(=O)N[C@@H](CC(C)C)C(=O)N[C@H](C(=O)N[C@@H](CCCCN)C(=O)NCC(=O)N[C@@H](CCCNC(=N)N)C(N)=O)C(C)C` [Compound 1, reference compound], the Ultracentrifugation was 0.9813, the “First Run” value is given as 0.5803 and the “Second Run” value was found to be 1.382.
Taken in the same sequence, the figures for `CC[C@H](C)[C@H](NC(=O)[C@H](Cc1ccccc1)NC(=O)[C@H](CCC(=O)O)NC(=O)[C@H](CCCCN)NC(=O)[C@H](C)NC(=O)[C@H](CC1CCCCC1)NC(=O)[C@H](CCC(N)=O)NC(=O)CNC(=O)[C@H](CCC(=O)O)NC(=O)[C@H](CC(C)C)NC(=O)[C@H](Cc1ccc(O)cc1)NC(=O)[C@H](CO)NC(=O)[C@H](CO)NC(=O)[C@@H](NC(=O)[C@H](CC(=O)O)NC(=O)[C@H](CO)NC(=O)[C@@H](NC(=O)[C@H](Cc1ccccc1)NC(=O)[C@@H](NC(=O)CNC(=O)[C@H](CCC(=O)O)NC(=O)[C@H](C)NC(=O)[C@@H](N)Cc1c[nH]cn1)[C@@H](C)O)[C@@H](C)O)C(C)C)C(=O)N[C@@H](C)C(=O)N[C@@H](Cc1c[nH]c2ccccc12)C(=O)N[C@@H](CC(C)C)C(=O)N[C@H](C(=O)N[C@@H](CCCCN)C(=O)NCC(=O)N[C@@H](CCCNC(=N)N)C(N)=O)C(C)C` [Compound 2] (H-HAEGTFTSDVSSYLEGQ[Cha]AKEFIAWLVKGR-NH2; N-terminus assumed) were 0, 0 and 0.
As for `CCCC[C@H](NC(=O)[C@H](CCC(N)=O)NC(=O)CNC(=O)[C@H](CCC(=O)O)NC(=O)[C@H](CC(C)C)NC(=O)[C@H](Cc1ccc(O)cc1)NC(=O)[C@H](CO)NC(=O)[C@H](CO)NC(=O)[C@@H](NC(=O)[C@H](CC(=O)O)NC(=O)[C@H](CO)NC(=O)[C@@H](NC(=O)[C@H](Cc1ccccc1)NC(=O)[C@@H](NC(=O)CNC(=O)[C@H](CCC(=O)O)NC(=O)[C@H](C)NC(=O)[C@@H](N)Cc1c[nH]cn1)[C@@H](C)O)[C@@H](C)O)C(C)C)C(=O)N[C@@H](C)C(=O)N[C@@H](CCCCN)C(=O)N[C@@H](CCC(=O)O)C(=O)N[C@@H](Cc1ccccc1)C(=O)N[C@H](C(=O)N[C@@H](C)C(=O)N[C@@H](Cc1c[nH]c2ccccc12)C(=O)N[C@@H](CC(C)C)C(=O)N[C@H](C(=O)N[C@@H](CCCCN)C(=O)NCC(=O)N[C@@H](CCCNC(=N)N)C(N)=O)C(C)C)[C@@H](C)CC` [Compound 3] (H-HAEGTFTSDVSSYLEGQ[Nle]AKEFIAWLVKGR-NH2; N-terminus assumed), the Ultracentrifugation amounted to 0.1242, the “First Run” value was 0.086 and the “Second Run” value is given as 0.1624. Further, the solubility under setting [1] is 90 µg/mL. For the same compound, the solubility under setting [2] was determined as 160 µg/mL.
`CC[C@H](C)[C@H](NC(=O)[C@H](Cc1ccccc1)NC(=O)[C@H](CCC(=O)O)NC(=O)[C@H](CCCCN)NC(=O)[C@H](C)NC(=O)[C@H](CCCCNC(C)=O)NC(=O)[C@H](CCC(N)=O)NC(=O)CNC(=O)[C@H](CCC(=O)O)NC(=O)[C@H](CC(C)C)NC(=O)[C@H](Cc1ccc(O)cc1)NC(=O)[C@H](CO)NC(=O)[C@H](CO)NC(=O)[C@@H](NC(=O)[C@H](CC(=O)O)NC(=O)[C@H](CO)NC(=O)[C@@H](NC(=O)[C@H](Cc1ccccc1)NC(=O)[C@@H](NC(=O)CNC(=O)[C@H](CCC(=O)O)NC(=O)[C@H](C)NC(=O)[C@@H](N)Cc1c[nH]cn1)[C@@H](C)O)[C@@H](C)O)C(C)C)C(=O)N[C@@H](C)C(=O)N[C@@H](Cc1c[nH]c2ccccc12)C(=O)N[C@@H](CC(C)C)C(=O)N[C@H](C(=O)N[C@@H](CCCCN)C(=O)NCC(=O)N[C@@H](CCCNC(=N)N)C(N)=O)C(C)C` [Compound 4] (H-HAEGTFTSDVSSYLEGQK(Ac)AKEFIAWLVKGR-NH2; N-terminus assumed): the Ultracentrifugation is 2, the “First Run” value came out at 2 and the “Second Run” value is 2. Moreover, under setting [1], the solubility is more than 2000 µg/mL. In addition, the solubility under setting [2] was more than 2000 µg/mL.
For the compound `CC[C@H](C)[C@H](NC(=O)[C@H](Cc1ccccc1)NC(=O)[C@H](CCC(=O)O)NC(=O)[C@H](CCCCN)NC(=O)[C@H](C)NC(=O)C(C)(C)NC(=O)[C@H](CCC(N)=O)NC(=O)CNC(=O)[C@H](CCC(=O)O)NC(=O)[C@H](CC(C)C)NC(=O)[C@H](Cc1ccc(O)cc1)NC(=O)[C@H](CO)NC(=O)[C@H](CO)NC(=O)[C@@H](NC(=O)[C@H](CC(=O)O)NC(=O)[C@H](CO)NC(=O)[C@@H](NC(=O)[C@H](Cc1ccccc1)NC(=O)[C@@H](NC(=O)CNC(=O)[C@H](CCC(=O)O)NC(=O)[C@H](C)NC(=O)[C@@H](N)Cc1c[nH]cn1)[C@@H](C)O)[C@@H](C)O)C(C)C)C(=O)N[C@@H](C)C(=O)N[C@@H](Cc1c[nH]c2ccccc12)C(=O)N[C@@H](CC(C)C)C(=O)N[C@H](C(=O)N[C@@H](CCCCN)C(=O)NCC(=O)N[C@@H](CCCNC(=N)N)C(N)=O)C(C)C` [Compound 5] (H-HAEGTFTSDVSSYLEGQ[Aib]AKEFIAWLVKGR-NH2; N-terminus assumed), the Ultracentrifugation is listed as 0.08054, the “First Run” value is recorded as 0.09475 and the “Second Run” value is on record as 0.06633. For the same compound, under setting [1], the solubility was 90 µg/mL. The solubility under setting [2] was 70 µg/mL.
Take `CC[C@H](C)[C@H](NC(=O)[C@H](Cc1ccccc1)NC(=O)[C@H](CCC(=O)O)NC(=O)[C@H](CCCCN)NC(=O)[C@H](C)NC(=O)[C@H](CCCNC(N)=O)NC(=O)[C@H](CCC(N)=O)NC(=O)CNC(=O)[C@H](CCC(=O)O)NC(=O)[C@H](CC(C)C)NC(=O)[C@H](Cc1ccc(O)cc1)NC(=O)[C@H](CO)NC(=O)[C@H](CO)NC(=O)[C@@H](NC(=O)[C@H](CC(=O)O)NC(=O)[C@H](CO)NC(=O)[C@@H](NC(=O)[C@H](Cc1ccccc1)NC(=O)[C@@H](NC(=O)CNC(=O)[C@H](CCC(=O)O)NC(=O)[C@H](C)NC(=O)[C@@H](N)Cc1c[nH]cn1)[C@@H](C)O)[C@@H](C)O)C(C)C)C(=O)N[C@@H](C)C(=O)N[C@@H](Cc1c[nH]c2ccccc12)C(=O)N[C@@H](CC(C)C)C(=O)N[C@H](C(=O)N[C@@H](CCCCN)C(=O)NCC(=O)N[C@@H](CCCNC(=N)N)C(N)=O)C(C)C` [Compound 6] (H-HAEGTFTSDVSSYLEGQ[Cit]AKEFIAWLVKGR-NH2; N-terminus assumed): the Ultracentrifugation is given as 2, the “First Run” value is on record as 2 and the “Second Run” value stood at 2. Under setting [1], the solubility was more than 2000 µg/mL. The solubility under setting [2] is more than 2000 µg/mL.
For the compound `CC[C@H](C)[C@H](NC(=O)[C@H](Cc1ccccc1)NC(=O)[C@H](CCC(=O)O)NC(=O)[C@H](CCCCN)NC(=O)[C@H](C)NC(=O)[C@H](CC1CCCCC1)NC(=O)[C@H](CCC(N)=O)NC(=O)CNC(=O)[C@H](CCC(=O)O)NC(=O)[C@H](CC(C)C)NC(=O)[C@H](Cc1ccc(O)cc1)NC(=O)[C@H](CO)NC(=O)[C@H](CO)NC(=O)[C@@H](NC(=O)[C@H](CC(=O)O)NC(=O)[C@H](CO)NC(=O)[C@@H](NC(=O)[C@H](Cc1ccccc1)NC(=O)[C@@H](NC(=O)CNC(=O)[C@H](CCC(=O)O)NC(=O)[C@H](C)NC(=O)[C@@H](N)Cc1c[nH]cn1)[C@@H](C)O)[C@@H](C)O)C(C)C)C(=O)N[C@@H](C)C(=O)N[C@@H](Cc1c[nH]c2ccccc12)C(=O)N[C@@H](CC(C)C)C(=O)N[C@H](C(=O)N[C@@H](CCCCN)C(=O)NCC(=O)N[C@@H](CCCNC(N)=O)C(N)=O)C(C)C` [Compound 7] (H-HAEGTFTSDVSSYLEGQ[Cha]AKEFIAWLVKG[Cit]-NH2; N-terminus assumed), the Ultracentrifugation came out at 0.8319, the “First Run” value is 0.8416 and the “Second Run” value is reported as 0.8222. For the same compound, under setting [1], the solubility is 840 µg/mL. The solubility under setting [2] came out at 820 µg/mL.
